Measured values taken from paper PMC4955735 (Anesthesiology, 2016).
Entries after “also recorded” stand apart in the source; their conditions may differ. Where two headings read alike, the source gives them in different places.

Assays:
[1] = tested on: human white blood cells (THP-1); experiment: MTS cell viability assay; assay type: cell-based; conditions: calabadion 2 up to 1 mM
hERG channel = hERG channel (Homo sapiens, UniProt Q12809); conditions: read-out: IC50, hERG channel; CHO-hERG, patch clamp, up to 25 μM
S.typhimurium TA 1537 = experiment: Bacteria reverse mutation assay; conditions: for ratio of number of colonies after treatment relative to untreated bacteria: <1.6 not mutagenic
Job plot [2] = assay type: physicochemical; conditions: calabadion 2•etomidate; establishes 1:1 complex
Job plot [3] = assay type: physicochemical; conditions: calabadion 2•ketamine, total 1 mM, pD 7.4; establishes 1:1 complex
[4] = tested on: S.typhimurium TA1535, TA 1537, TA 98 and TA 100; experiment: Bacteria reverse mutation assay; conditions: Ames test, −/+S9
Swiss Webster mice = experiment: Dose escalation; assay type: in vivo, mouse
S.typhimurium TA 1535 = conditions: for ratio of number of colonies after treatment relative to untreated bacteria: <1.6 not mutagenic
[5] = tested on: THP-1, HepG2 and HEK293 cells; experiment: Adenylate kinase release cell necrosis; assay type: cell-based, human; conditions: calabadion 2 up to 1 mM
Sprague-Dawley rats [6] = experiment: Burst suppression ratio and blood pressure during continuous etomidate infusion; assay type: in vivo, rat; conditions: continuous etomidate i.v.; escalating calabadion 2 infusion; returned from 83%; n=10
Sprague-Dawley rats [7] = experiment: Time to recovery from loss of righting reflex; assay type: in vivo, rat
Sprague-Dawley rats [8] = experiment: Maximal tolerated dose escalation study with histopathology in rats; assay type: in vivo, rat
kidney cells (HEK293) = experiment: MTS cell viability assay; assay type: cell-based, human; conditions: calabadion 2 up to 1 mM
S.typhimurium TA 98 = experiment: Bacteria reverse mutation assay; conditions: for ratio of number of colonies after treatment relative to untreated bacteria: <1.6 not mutagenic
Sprague-Dawley rats [9] = experiment: Total EEG power and blood pressure during continuous ketamine infusion; assay type: in vivo, rat; conditions: highest calabadion 2 dose, baseline 96 mmHg, n=10
liver cells (HepG2) = experiment: MTS cell viability assay; assay type: cell-based, human; conditions: calabadion 2 up to 1 mM
rats = experiment: Balance beam test of functional mobility after anesthesia; assay type: in vivo, rat; conditions: n=7
S.typhimurium TA 100 = conditions: for ratio of number of colonies after treatment relative to untreated bacteria: <1.6 not mutagenic

hERG channel, sequence (Q12809 whole entry): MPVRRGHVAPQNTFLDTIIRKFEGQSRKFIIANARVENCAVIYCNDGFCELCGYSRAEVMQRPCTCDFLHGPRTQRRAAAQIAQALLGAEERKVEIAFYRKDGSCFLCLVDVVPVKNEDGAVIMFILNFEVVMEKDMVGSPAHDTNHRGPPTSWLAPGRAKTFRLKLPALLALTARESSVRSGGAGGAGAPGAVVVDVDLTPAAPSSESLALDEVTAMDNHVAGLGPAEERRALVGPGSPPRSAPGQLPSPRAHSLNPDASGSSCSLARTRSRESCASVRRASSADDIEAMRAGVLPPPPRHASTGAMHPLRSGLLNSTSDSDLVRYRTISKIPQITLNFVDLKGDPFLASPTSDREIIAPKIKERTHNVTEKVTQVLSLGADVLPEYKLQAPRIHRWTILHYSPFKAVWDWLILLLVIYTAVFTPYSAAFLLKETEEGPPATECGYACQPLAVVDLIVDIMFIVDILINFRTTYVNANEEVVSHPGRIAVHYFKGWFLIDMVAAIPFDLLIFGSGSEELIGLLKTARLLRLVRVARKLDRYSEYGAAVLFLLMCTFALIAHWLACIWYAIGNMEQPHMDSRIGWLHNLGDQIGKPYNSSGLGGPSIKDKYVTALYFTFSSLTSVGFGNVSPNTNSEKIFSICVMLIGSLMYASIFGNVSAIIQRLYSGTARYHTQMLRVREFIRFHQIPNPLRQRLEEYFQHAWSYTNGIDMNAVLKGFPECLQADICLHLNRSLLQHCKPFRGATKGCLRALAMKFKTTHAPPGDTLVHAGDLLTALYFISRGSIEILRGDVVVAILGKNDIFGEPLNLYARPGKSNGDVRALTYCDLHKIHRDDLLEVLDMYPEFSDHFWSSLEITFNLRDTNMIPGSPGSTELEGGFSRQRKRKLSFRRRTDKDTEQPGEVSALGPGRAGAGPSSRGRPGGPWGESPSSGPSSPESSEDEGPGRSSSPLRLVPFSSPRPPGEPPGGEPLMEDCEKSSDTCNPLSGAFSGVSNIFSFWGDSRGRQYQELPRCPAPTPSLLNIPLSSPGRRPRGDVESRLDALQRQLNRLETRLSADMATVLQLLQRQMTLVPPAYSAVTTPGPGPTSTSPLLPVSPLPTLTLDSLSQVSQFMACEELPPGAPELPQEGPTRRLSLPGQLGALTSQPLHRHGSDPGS

Compound: C[C@]12N3Cc4c(c(OCCCS(=O)(=O)[O-])c5ccccc5c4OCCCS(=O)(=O)[O-])CN1C(=O)N1CN4C(=O)N5CN6C(=O)N7CN8C(=O)N9Cc%10c(c(OCCCS(=O)(=O)[O-])c%11ccccc%11c%10OCCCS(=O)(=O)[O-])CN%10C(=O)N(CN%11C(=O)N(CN%12C(=O)N(CN(C3=O)[C@]12C)[C@@H]4[C@H]%125)[C@@H]6[C@H]%117)[C@]8(C)[C@@]9%10C.[Na+].[Na+].[Na+].[Na+] [Calabadion 2]
- cell viability [1]: did not observe a significant reduction
- IC50 (hERG channel): > 25 µM
- number of colonies growing after treatment (S.typhimurium TA 1537; TA 1537, +S9, 0.012 mg per plate): 2 ± 1
- number of colonies growing after treatment (S.typhimurium TA 1537; TA 1537, +S9, 0.037 mg per plate): 4 ± 1
- number of colonies growing after treatment (S.typhimurium TA 1537; TA 1537, +S9, 0.11 mg per plate): 6 ± 1
- number of colonies growing after treatment (S.typhimurium TA 1537; TA 1537, +S9, 0.33 mg per plate): 6 ± 1
- number of colonies growing after treatment (S.typhimurium TA 1537; TA 1537, +S9, 1 mg per plate): 5 ± 2
- ratio of number of colonies after treatment relative to untreated bacteria (S.typhimurium TA 1537; TA 1537, +S9): 0.71
- number of colonies growing after treatment (S.typhimurium TA 1537; TA 1537, −S9, 0.012 mg per plate): 7 ± 2
- number of colonies growing after treatment (S.typhimurium TA 1537; TA 1537, −S9, 0.037 mg per plate): 8 ± 2
- number of colonies growing after treatment (S.typhimurium TA 1537; TA 1537, −S9, 0.11 mg per plate): 7 ± 2
- number of colonies growing after treatment (S.typhimurium TA 1537; TA 1537, −S9, 0.33 mg per plate): 8 ± 1
- number of colonies growing after treatment (S.typhimurium TA 1537; TA 1537, −S9, 1 mg per plate): 3 ± 2
- ratio of number of colonies after treatment relative to untreated bacteria (S.typhimurium TA 1537; TA 1537, −S9): 0.3
- Job plot maximum (mole fraction) (Job plot [2]): 0.5
- Job plot maximum (mole fraction) (Job plot [3]): 0.5
- mutagenic potential [4]: no mutagenic potential
- average weight change of mice (Swiss Webster mice; all groups (29, 87, 145, 203 mg/kg i.p. daily for 14 days), after 28 days): ≥ 95%
- tolerance in maximum tolerated dose study (Swiss Webster mice; mice, i.p. daily for 14 days, up to 203 mg/kg): good tolerance
- number of colonies growing after treatment (S.typhimurium TA 1535; TA 1535, +S9, 0.012 mg per plate): 10 ± 2
- number of colonies growing after treatment (S.typhimurium TA 1535; TA 1535, +S9, 0.037 mg per plate): 6 ± 2
- number of colonies growing after treatment (S.typhimurium TA 1535; TA 1535, +S9, 0.11 mg per plate): 7 ± 1
- number of colonies growing after treatment (S.typhimurium TA 1535; TA 1535, +S9, 0.33 mg per plate): 10 ± 5
- number of colonies growing after treatment (S.typhimurium TA 1535; TA 1535, +S9, 1 mg per plate): 7 ± 3
- ratio of number of colonies after treatment relative to untreated bacteria (S.typhimurium TA 1535; TA 1535, +S9): 0.87
- number of colonies growing after treatment (S.typhimurium TA 1535; TA 1535, −S9, 0.012 mg per plate): 6 ± 1
- number of colonies growing after treatment (S.typhimurium TA 1535; TA 1535, −S9, 0.037 mg per plate): 10 ± 5
- number of colonies growing after treatment (S.typhimurium TA 1535; TA 1535, −S9, 0.11 mg per plate): 8 ± 3
- number of colonies growing after treatment (S.typhimurium TA 1535; TA 1535, −S9, 0.33 mg per plate): 7 ± 4
- number of colonies growing after treatment (S.typhimurium TA 1535; TA 1535, −S9, 1 mg per plate): 8 ± 3
- ratio of number of colonies after treatment relative to untreated bacteria (S.typhimurium TA 1535; TA 1535, −S9): 0.72
- cell lysis [5]: no cell lysis
- mean arterial blood pressure (MAP), % of pre-etomidate baseline (Sprague-Dawley rats [6]): 101%
- decrease of time to recovery from LORR relative to saline (Sprague-Dawley rats [7]; etomidate-anesthetized rats): ~50%
- decrease of time to recovery from LORR relative to saline (Sprague-Dawley rats [7]; ketamine anesthetized rats): about 30%
- ED50 (median dose for accelerated recovery from LORR with 50% probability) (Sprague-Dawley rats [7]; reversal of 4 mg/kg i.v. etomidate bolus): 984 mg/kg
- ED50 (median dose for accelerated recovery from LORR with 50% probability) (Sprague-Dawley rats [7]; reversal of 30 mg/kg i.v. bolus of ketamine, 30 mg/kg): 167 mg/kg
- tolerability at effective doses (Sprague-Dawley rats [8]): well tolerated
- pathology finding, kidney (Sprague-Dawley rats [8]; 5 of 6 animals that received the 2 highest doses, not at 1.6 g/kg): • A mild vacuolation of the epithelium in the P1 and P2 segments of the proximal convoluted tubule.
- pathology finding, liver (Sprague-Dawley rats [8]; all animals that received 3.1–5.1 g/kg, 1 animal that received 1.6 g/kg): • Mild to moderate vacuolation that is consistent with mild fat accumulation.
- pathology finding, lung (Sprague-Dawley rats [8]; animals receiving 3.1–5.1 g/kg): Mild cellular necrosis, some apparent fluid in alveolar spaces and enlarged, foamy pulmonary alveolar macrophages; also recorded: Occasional distension of pulmonary alveolar capillaries with red blood cells and in a few animals evidence of possible pulmonary emboli; also recorded: Macrophages, especially in connective tissue or adipose tissue that were distended with a bluish, hematoxylin-positive material that appeared to be localized in the lysosomes
- pathology finding, heart (Sprague-Dawley rats [8]; i.v. up to 5.1 g/kg, all doses): • Within normal limits
- pathology finding, spleen (Sprague-Dawley rats [8]; i.v. up to 5.1 g/kg, all doses): • Within normal limits
- median lethal dose (LD50) (Sprague-Dawley rats [8]; i.v., escalating doses on consecutive days, n=10): 2700 mg/kg
- cell viability (kidney cells (HEK293)): only a slight dip
- number of colonies growing after treatment (S.typhimurium TA 98; TA 98, +S9, 0.012 mg per plate): 24 ± 4
- number of colonies growing after treatment (S.typhimurium TA 98; TA 98, +S9, 0.037 mg per plate): 27 ± 3
- number of colonies growing after treatment (S.typhimurium TA 98; TA 98, +S9, 0.11 mg per plate): 23 ± 5
- number of colonies growing after treatment (S.typhimurium TA 98; TA 98, +S9, 0.33 mg per plate): 24 ± 7
- number of colonies growing after treatment (S.typhimurium TA 98; TA 98, +S9, 1 mg per plate): 29 ± 6
- ratio of number of colonies after treatment relative to untreated bacteria (S.typhimurium TA 98; TA 98, +S9): 1.07
- number of colonies growing after treatment (S.typhimurium TA 98; TA 98, −S9, 0.012 mg per plate): 24 ± 4
- number of colonies growing after treatment (S.typhimurium TA 98; TA 98, −S9, 0.037 mg per plate): 18 ± 8
- number of colonies growing after treatment (S.typhimurium TA 98; TA 98, −S9, 0.11 mg per plate): 30 ± 10
- number of colonies growing after treatment (S.typhimurium TA 98; TA 98, −S9, 0.33 mg per plate): 21 ± 5
- number of colonies growing after treatment (S.typhimurium TA 98; TA 98, −S9, 1 mg per plate): 20 ± 5
- ratio of number of colonies after treatment relative to untreated bacteria (S.typhimurium TA 98; TA 98, −S9): 1.05
- MAP compared to pre-ketamine baseline (Sprague-Dawley rats [9]): ~130%
- cell viability (liver cells (HepG2)): did not observe a significant reduction
- reduction of time slope of recovery of balance vs saline (rats; after 4 mg/kg etomidate i.v.): 4.9 min
- reduction of time slope of recovery of balance vs saline (rats; after 30 mg/kg ketamine i.v.): 3.9 min
- reduction of time slope of recovery of balance vs saline (rats; after 50 mg/kg ketamine i.m., calabadion 2 i.p.): 15.7 min
- number of colonies growing after treatment (S.typhimurium TA 100; TA 100, +S9, 0.012 mg per plate): 114 ± 2
- number of colonies growing after treatment (S.typhimurium TA 100; TA 100, +S9, 0.037 mg per plate): 112 ± 8
- number of colonies growing after treatment (S.typhimurium TA 100; TA 100, +S9, 0.11 mg per plate): 91 ± 6
- number of colonies growing after treatment (S.typhimurium TA 100; TA 100, +S9, 0.33 mg per plate): 101 ± 7
- number of colonies growing after treatment (S.typhimurium TA 100; TA 100, +S9, 1 mg per plate): 97 ± 4
- ratio of number of colonies after treatment relative to untreated bacteria (S.typhimurium TA 100; TA 100, +S9): 0.88
- number of colonies growing after treatment (S.typhimurium TA 100; TA 100, −S9, 0.012 mg per plate): 92 ± 11
- number of colonies growing after treatment (S.typhimurium TA 100; TA 100, −S9, 0.037 mg per plate): 100 ± 6
- number of colonies growing after treatment (S.typhimurium TA 100; TA 100, −S9, 0.11 mg per plate): 94 ± 4
- number of colonies growing after treatment (S.typhimurium TA 100; TA 100, −S9, 0.33 mg per plate): 105 ± 9
- number of colonies growing after treatment (S.typhimurium TA 100; TA 100, −S9, 1 mg per plate): 106 ± 6
- ratio of number of colonies after treatment relative to untreated bacteria (S.typhimurium TA 100; TA 100, −S9): 1.06
